Columns and labels:
[1] = organism: Homo sapiens; assay: Binding affinity to human AAG at 37 degC by induced circular dichroism method
[2] = target: T1, Albumin (Homo sapiens, UniProt P02768); assay: Binding affinity to human serum albumin by circular dichroism and UV/VIS spectroscopic method; type: ADME; settings: isolated protein
[3] = target: T1, Albumin; assay: Binding affinity to human serum albumin on sepharose column by affinity chromatography; type: ADME; settings: isolated protein
[4] = target: Alpha-1-acid glycoprotein 1 (Homo sapiens, UniProt P02763); assay: Binding affinity to human ORM1 at 37 degC by induced circular dichroism method
Sequence of Alpha-1-acid glycoprotein 1 (P02763 whole entry): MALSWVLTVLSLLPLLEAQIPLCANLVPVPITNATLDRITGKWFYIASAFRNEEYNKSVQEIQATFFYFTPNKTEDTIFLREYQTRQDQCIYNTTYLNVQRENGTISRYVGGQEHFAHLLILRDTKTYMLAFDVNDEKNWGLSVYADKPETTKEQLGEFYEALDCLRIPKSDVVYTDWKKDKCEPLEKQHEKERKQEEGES

[5] = organism: Homo sapiens; assay: Displacement of quinaldine red from human AAG by fluorescence method
[6] = target: Alpha-1-acid glycoprotein 2 (Homo sapiens, UniProt P19652); assay: Binding affinity to human ORM2 at 37 degC by induced circular dichroism method
Sequence of Alpha-1-acid glycoprotein 2 (P19652 whole entry): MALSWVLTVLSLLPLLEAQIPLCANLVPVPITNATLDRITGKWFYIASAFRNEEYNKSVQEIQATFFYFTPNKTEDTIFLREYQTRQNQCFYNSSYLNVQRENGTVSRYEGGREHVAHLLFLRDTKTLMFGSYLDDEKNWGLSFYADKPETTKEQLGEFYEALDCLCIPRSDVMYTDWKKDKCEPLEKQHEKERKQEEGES

[7] = organism: Homo sapiens; assay: Binding affinity to human AAG at 23 degC by induced circular dichroism method
[8] = target: T1, Albumin; assay: Binding affinity to human serum albumin by fluorescence emission spectra; type: ADME; settings: isolated protein
[9] = organism: Homo sapiens; assay: Binding affinity to human AAG by fluorescence emission spectra

T1 sequence (P02768 whole entry): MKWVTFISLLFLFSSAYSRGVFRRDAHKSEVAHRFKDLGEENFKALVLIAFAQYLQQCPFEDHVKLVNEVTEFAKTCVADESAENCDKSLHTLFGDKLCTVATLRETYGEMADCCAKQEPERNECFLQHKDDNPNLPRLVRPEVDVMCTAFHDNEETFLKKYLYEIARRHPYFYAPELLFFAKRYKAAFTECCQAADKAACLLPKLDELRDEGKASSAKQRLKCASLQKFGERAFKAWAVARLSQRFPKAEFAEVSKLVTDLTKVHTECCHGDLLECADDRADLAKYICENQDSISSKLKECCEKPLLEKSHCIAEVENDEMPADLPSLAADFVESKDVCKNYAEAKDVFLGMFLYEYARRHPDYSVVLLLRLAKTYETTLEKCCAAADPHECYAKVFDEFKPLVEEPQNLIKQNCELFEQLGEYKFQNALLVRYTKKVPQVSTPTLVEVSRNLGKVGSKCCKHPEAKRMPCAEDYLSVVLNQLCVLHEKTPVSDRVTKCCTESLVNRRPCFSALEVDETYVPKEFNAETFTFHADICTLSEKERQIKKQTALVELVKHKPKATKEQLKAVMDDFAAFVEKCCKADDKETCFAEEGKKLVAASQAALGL

| SMILES | Ka [3] | Ka [5] | other results |
| --- | --- | --- | --- |
| CCN(CC)CCCC(C)Nc1c2ccc(Cl)cc2nc2ccc(OC)cc12 (stereo not given) | – | – | Ka [1]: 2.3 10^5/M |
| CCN(CC)Cc1cc(Nc2ccnc3cc(Cl)ccc23)ccc1O.Cl | 2 10^4/M | – | Ka [2]: 6200 M⁻¹ |
| COc1cc(NC(C)CCCN)c2ncccc2c1.O=P(O)(O)O.O=P(O)(O)O (stereo not given) [PRIMAQUINE PHOSPHATE] | – | – | Ka [4]: 8 10^5/M |
| CC(=O)O[C@H]1N=C(c2ccccc2Cl)c2cc(Cl)ccc2NC1=O | 2 10^4/M | – | – |
| CCN(CC)CCCC(C)Nc1c2ccc(Cl)cc2nc2ccc(OC)cc12 (stereo not given) [QUINACRINE] | 7 10^3/M | – | – |
| CC(=O)O[C@@H]1N=C(c2ccccc2)c2cc(Cl)ccc2NC1=O | 8 10^4/M | – | – |
| COc1cc(NC(C)CCCN)c2ncccc2c1 (stereo not given) | – | 4.2 10^5/M | Ka [1]: 4.1 10^5/M |
| CCN(CC)CCCC(C)Nc1c2ccc(Cl)cc2nc2ccc(OC)cc12.Cl.Cl (stereo not given) [QUINACRINE DIHYDROCHLORIDE] | – | – | Ka [6]: 3.7 10^5/M |
| OC(c1cc(C(F)(F)F)nc2c(C(F)(F)F)cccc12)C1CCCCN1 (stereo not given) [MEFLOQUINE] | 8 10^4/M | 8.7 10^5/M | – |
| CCN(CC)Cc1cc(Nc2ccnc3cc(Cl)ccc23)ccc1O | – | 1.1 10^5/M | Ka [1]: 4.8 10^4/M |
| CN(C)CCCN1c2ccccc2Sc2ccc(Cl)cc21 | – | 8.4 10^5/M | – |
| CC(C)NCC(O)COc1cccc2ccccc12 (racemic) | – | 1.5 10^5/M | – |
| COc1cc(NC(C)CCCN)c2ncccc2c1 (stereo not given) [PRIMAQUINE] | 7 10^3/M | – | – |
| COc1cc(C)c2c(Oc3cccc(C(F)(F)F)c3)c(OC)cc(NC(C)CCCN)c2n1 (stereo not given) [TAFENOQUINE] | 3 10^5/M | 1.8 10^6/M | Ka [1]: 3.3 10^5/M; Ka [7]: 1.1 10^6/M; Ka [2]: 24000 M⁻¹; Ka [8]: 3 10^5/M; Ka [9]: 1.6 10^6/M |
| CC(=O)O[C@@H]1N=C(c2ccccc2Cl)c2cc(Cl)ccc2NC1=O | 4 10^4/M | – | – |
| CCN(CC)CCCC(C)Nc1ccnc2cc(Cl)ccc12 (stereo not given) [CHLOROQUINE] | 2 10^3/M | 0.3 10^5/M | – |
| CC#C[C@]1(O)CC[C@H]2[C@@H]3CCC4=CC(=O)CCC4=C3[C@@H](c3ccc(N(C)C)cc3)C[C@@]21C | – | 4 10^6/M | – |
| CC(=O)O[C@H]1N=C(c2ccccc2)c2cc(Cl)ccc2NC1=O | 1 10^4/M | – | – |
| CCN(CC)Cc1cc(Nc2ccnc3cc(Cl)ccc23)ccc1O.Cl.Cl.Cl | – | – | Ka [4]: 5.8 10^4/M |
